Laboratory results published in patent US10894784B2, “Heteroarylbenzimidazole compounds” (BAYER PHARMA AKTIENGESELLSCHAFT, priority 2015, dated 2021).
Read-outs that look alike come from different tables or passages of the source.

Target: TBK1 (Homo sapiens (Human), UniProt Q9UHD2)
Assay: TBK1 low ATP kinase assay (in vitro assay 1)
Type: biochemical
[1] = in vitro assay 1, read-out: TBK1 low ATP kinase assay IC50

TBK1, sequence (Q9UHD2 whole entry): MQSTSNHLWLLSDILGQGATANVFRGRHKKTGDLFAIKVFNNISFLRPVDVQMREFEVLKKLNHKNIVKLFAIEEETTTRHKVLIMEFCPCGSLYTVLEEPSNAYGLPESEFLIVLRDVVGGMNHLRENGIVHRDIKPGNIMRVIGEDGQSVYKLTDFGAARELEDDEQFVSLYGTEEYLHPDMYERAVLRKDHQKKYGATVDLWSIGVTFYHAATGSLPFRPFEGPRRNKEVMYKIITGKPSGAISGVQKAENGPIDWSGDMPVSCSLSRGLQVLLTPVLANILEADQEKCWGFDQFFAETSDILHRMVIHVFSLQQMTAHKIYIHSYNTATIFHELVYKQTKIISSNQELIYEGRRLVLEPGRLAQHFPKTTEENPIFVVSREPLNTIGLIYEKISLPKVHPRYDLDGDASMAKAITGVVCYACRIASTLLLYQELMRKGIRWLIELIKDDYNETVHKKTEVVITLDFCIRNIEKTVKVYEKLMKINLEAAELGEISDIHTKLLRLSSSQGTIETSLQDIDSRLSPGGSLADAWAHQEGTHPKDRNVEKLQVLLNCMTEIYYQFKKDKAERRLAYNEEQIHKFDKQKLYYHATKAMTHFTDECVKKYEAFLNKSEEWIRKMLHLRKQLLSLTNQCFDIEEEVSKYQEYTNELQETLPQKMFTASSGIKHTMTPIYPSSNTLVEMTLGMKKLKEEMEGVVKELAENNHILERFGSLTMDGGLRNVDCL

IC50 [1] [nM]	IC50 (TBK1 low ATP kinase assay IC50, in vitro assay 1) [nM]	Molecule
5	–	CC(C)N(C)c1cc(-c2ccc3nc(Nc4cc(CN5CCN(C(=O)C6CC6)CC5)ccn4)[nH]c3c2)ncn1 [Example 153.03, cyclopropyl[4-({2-[(6-{6-[methyl(propan-2-yl)amino]pyrimidin-4-yl}-1H-benzimidazol-2-yl)amino]pyridin-4-yl}methyl)piperazin-1-yl]methanone]
216	–	Cc1cncnc1-c1ccc2nc(Nc3cc(CN4CCN(C(=O)C5CC5)CC4)ccn3)[nH]c2c1 [Example 184.03, cyclopropyl{4-[(2-{[6-(5-methylpyrimidin-4-yl)-1H-benzimidazol-2-yl]amino}pyridin-4-yl)methyl]piperazin-1-yl}methanone]
491	–	Cc1noc(-c2ccc3nc(Nc4cc(CN5CCN(C(=O)C6CCC6)CC5(C)C)ccn4)[nH]c3c2)n1 [Example 16.04.05, cyclobutyl{3,3-dimethyl-4-[(2-{[6-(3-methyl-1,2,4-oxadiazol-5-yl)-1H-benzimidazol-2-yl]amino}pyridin-4-yl)methyl]piperazin-1-yl}methanone]
19	–	O=C(C1CC1)N1CCN(Cc2ccnc(Nc3nc4ccc(-c5ccnc(N6CCOCC6)c5)cc4[nH]3)c2)CC1 [Example 134.03, cyclopropyl(4-{[2-({6-[2-(morpholin-4-yl)pyridin-4-yl]-1H-benzimidazol-2-yl}amino)pyridin-4-yl]methyl}piperazin-1-yl)methanone]
13	–	CC(C)(C)OC(=O)N1CCN(Cc2ccnc(Nc3nc4ccc(-c5cc(N6CCCCC6)ncn5)cc4[nH]3)c2)CC1 [Example 145.01, tert-butyl 4-{[2-({6-[6-(piperidin-1-yl)pyrimidin-4-yl]-1H-benzimidazol-2-yl}amino)pyridin-4-yl]methyl}piperazine-1-carboxylate]
63.1	–	Cc1noc(-c2ccc3nc(Nc4cc(CN5CCN(C(=O)CC(F)(F)F)C[C@H]5C)ccn4)[nH]c3c2)n1 [Example 16.03.02, 3,3,3-trifluoro-1-{(3R)-3-methyl-4-[(2-{[6-(3-methyl-1,2,4-oxadiazol-5-yl)-1H-benzimidazol-2-yl]amino}pyridin-4-yl)methyl]piperazin-1-yl}propan-1-one]
41.3	–	CCOc1ncnc(-c2ccc3nc(Nc4cc(CN5CCN(C(=O)C6CC6)CC5)ccn4)[nH]c3c2)c1OC [Example 167.03, cyclopropyl{4-[(2-{[6-(6-ethoxy-5-methoxypyrimidin-4-yl)-1H-benzimidazol-2-yl]amino}pyridin-4-yl)methyl]piperazin-1-yl}methanone]
203	–	O=C(CC1CC1)N1CCN(Cc2ccnc(Nc3nc4ccc(-c5ccnc(C(F)(F)F)n5)cc4[nH]3)c2)CC1 [Example 27.03, 2-cyclopropyl-1-(4-{[2-({6-[2-(trifluoromethyl)pyrimidin-4-yl]-1H-benzimidazol-2-yl}amino)pyridin-4-yl]methyl}piperazin-1-yl)ethanone]
42	–	Cc1cc(-c2ccc3nc(Nc4cc(CN5CCN(C(=O)C6CC6)CC5)ccn4)[nH]c3c2)ccn1 [Example 01.02, cyclopropyl{4-[(2-{[6-(2-methylpyridin-4-yl)-1H-benzimidazol-2-yl]amino}pyridin-4-yl)methyl]piperazin-1-yl}methanone]
96.7	–	COc1nccc(-c2ccc3nc(Nc4cc(CN5CCN(C(=O)CC6CC6)CC5)ccn4)[nH]c3c2)n1 [Example 25.01.03, 2-cyclopropyl-1-{4-[(2-{[6-(2-methoxypyrimidin-4-yl)-1H-benzimidazol-2-yl]amino}pyridin-4-yl)methyl]piperazin-1-yl}ethanone]
1.5	–	3,3,3-trifluoro-1-{4-[(1R or 1S)-1-{2-[(6-{1-[(1-methylcyclopropyl)methyl]-1H-pyrazol-4-yl}-1H-benzimidazol-2-yl)amino]pyridin-4-yl}ethyl]piperazin-1-yl}propan-1-one [Example 68.02]
62.5	–	Cn1cc(-c2ccc3nc(Nc4cc(CN5CCN(C(=O)CC6CC6)CC5)ccn4)[nH]c3c2)cn1 [Example 37.02, 2-cyclopropyl-1-{4-[(2-{[6-(1-methyl-1H-pyrazol-4-yl)-1H-benzimidazol-2-yl]amino}pyridin-4-yl)methyl]piperazin-1-yl}ethanone]
208	–	Cc1noc(-c2ccc3nc(Nc4cc(CN5CCN(C(=O)C(C)(C)C)CC5)ccn4)[nH]c3c2)n1 [Example 16.01.06, 2,2-dimethyl-1-{4-[(2-{[6-(3-methyl-1,2,4-oxadiazol-5-yl)-1H-benzimidazol-2-yl]amino}pyridin-4-yl)methyl]piperazin-1-yl}propan-1-one]
3.3	–	COCc1cc(-c2ccc3nc(Nc4cc(CN5CCN(C(=O)C6(C(F)(F)F)CC6)CC5)ccn4)[nH]c3c2)ncn1 [Example 79.03, (4-{[2-({6-[6-(methoxymethyl)pyrimidin-4-yl]-1H-benzimidazol-2-yl}amino)pyridin-4-yl]methyl}piperazin-1-yl)[1-(trifluoromethyl)cyclopropyl]methanone]
378	–	Cc1noc(-c2ccc3nc(Nc4cc(CN5CCN(C(=O)CC6CC6)CC5(C)C)ccn4)[nH]c3c2)n1 [Example 16.04.03, 2-cyclopropyl-1-{3,3-dimethyl-4-[(2-{[6-(3-methyl-1,2,4-oxadiazol-5-yl)-1H-benzimidazol-2-yl]amino}pyridin-4-yl)methyl]piperazin-1-yl}ethanone]
800	–	CC(c1ccnc(Nc2nc3ccc(-c4ccnn4C(C)C)cc3[nH]2)c1)N1CCN(C(=O)OC(C)(C)C)CC1 (single isomer, unassigned) [Example 72.01, tert-butyl 4-{(1R or 1S)-1-[2-({6-[1-(propan-2-yl)-1H-pyrazol-5-yl]-1H-benzimidazol-2-yl}amino)pyridin-4-yl]ethyl}piperazine-1-carboxylate]
2240	–	O=C(C1CC1)N1CCN(Cc2ccnc(Nc3nc4ccc(-c5cnc(C6CC6)nc5)cc4[nH]3)c2)CC1 [Example 45.04.01, cyclopropyl{4-[(2-{[6-(2-cyclopropylpyrimidin-5-yl)-1H-benzimidazol-2-yl]amino}pyridin-4-yl)methyl]piperazin-1-yl}methanone]
250	–	CC(c1ccnc(Nc2nc3ccc(-c4ccnn4C(C)C)cc3[nH]2)c1)N1CCN(C(=O)CC(F)(F)F)CC1 (single isomer, unassigned) [Example 72.02, 3,3,3-trifluoro-1-(4-{(1R or 1S)-1-[2-({6-[1-(propan-2-yl)-1H-pyrazol-5-yl]-1H-benzimidazol-2-yl}amino)pyridin-4-yl]ethyl}piperazin-1-yl)propan-1-one]
8.2	–	COc1c(-c2ccc3nc(Nc4cc(C(C)N5CCN(C(=O)OC(C)(C)C)CC5)ccn4)[nH]c3c2)ncnc1N1CCCC1 (single isomer, unassigned) [Example 112.01, tert-butyl 4-{(1R or S)-1-[2-({6-[5-methoxy-6-(pyrrolidin-1-yl)pyrimidin-4-yl]-1H-benzimidazol-2-yl}amino)pyridin-4-yl]ethyl}piperazine-1-carboxylate]
44.4	–	Cc1nccc(-c2ccc3nc(Nc4cc(CN5CCN(C(=O)CC6CC6)CC5)ccn4)[nH]c3c2)n1 [Example 24.01.04, 2-cyclopropyl-1-{4-[(2-{[6-(2-methylpyrimidin-4-yl)-1H-benzimidazol-2-yl]amino}pyridin-4-yl)methyl]piperazin-1-yl}ethanone]
0.88	–	CC(c1ccnc(Nc2nc3ccc(-c4cnn(CC5CC5(F)F)c4)c(Cl)c3[nH]2)c1)N1CCN(C(=O)CC(F)(F)F)CC1 (single isomer, unassigned) [Example 70.01, 1-{4-[(1R or 1S)-1-(2-{[7-chloro-6-(1-{[(1RS)-2,2-difluorocyclopropyl]methyl}-1H-pyrazol-4-yl)-1H-benzimidazol-2-yl]amino}pyridin-4-yl)ethyl]piperazin-1-yl}-3,3,3-trifluoropropan-1-one]
2.5	–	CC(C)Oc1cncnc1-c1ccc2nc(Nc3cc(C(C)N4CCN(C(=O)C5CCC5)CC4)ccn3)[nH]c2c1 (single isomer, unassigned) [Example 36.04, cyclobutyl(4-{(1R or 1S)-1-[2-({6-[5-(propan-2-yloxy)pyrimidin-4-yl]-1H-benzimidazol-2-yl}amino)pyridin-4-yl]ethyl}piperazin-1-yl)methanone]
–	33	Cc1noc(-c2ccc3nc(Nc4cc(C(C)N5CCN(C(=O)CC(F)(F)F)CC5)ccn4)[nH]c3c2)n1 (racemic) [Example 16.05.02, (rac)-3,3,3-trifluoro-1-{4-[1-(2-{[6-(3-methyl-1,2,4-oxadiazol-5-yl)-1H-benzimidazol-2-yl]amino}pyridin-4-yl)ethyl]piperazin-1-yl}propan-1-one]
12.3	–	Cc1cc(-c2ccc3nc(Nc4cc(CN5CCN(C(=O)C6CC6)CC5)ccn4)[nH]c3c2)ncn1 [Example 30.01.04, cyclopropyl{4-[(2-{[6-(6-methylpyrimidin-4-yl)-1H-benzimidazol-2-yl]amino}pyridin-4-yl)methyl]piperazin-1-yl}methanone]
4.3	–	Nc1cc(-c2ccc3nc(Nc4cc(CN5CCN(C(=O)C6CC6)CC5)ccn4)[nH]c3c2)ccn1 [Example 138.03, {4-[(2-{[6-(2-aminopyridin-4-yl)-1H-benzimidazol-2-yl]amino}pyridin-4-yl)methyl]piperazin-1-yl}(cyclopropyl)methanone]
1.06	–	CC(c1ccnc(Nc2nc3ccc(-c4cnn(CC5CC5(F)F)c4)cc3[nH]2)c1)N1CCN(C(=O)CC(F)(F)F)CC1 (single isomer, unassigned) [Example 55.02, 1-{4-[(1R or 1S)-1-(2-{[6-(1-{[(1RS)-2,2-difluorocyclopropyl]methyl}-1H-pyrazol-4-yl)-1H-benzimidazol-2-yl]amino}pyridin-4-yl)ethyl]piperazin-1-yl}-3,3,3-trifluoropropan-1-one]
15	–	Cc1cc(-c2ccc3nc(Nc4cc(C(C)N5CCN(C(=O)C6CC6)CC5)ccn4)[nH]c3c2F)ncn1 (single isomer, unassigned) [Example 172.03, cyclopropyl{4-[(1R or 1S)-1-(2-{[7-fluoro-6-(6-methylpyrimidin-4-yl)-1H-benzimidazol-2-yl]amino}pyridin-4-yl)ethyl]piperazin-1-yl}methanone]
